Read-outs that look alike come from different tables or passages of the source.
Target: Recombinant human ATX (Homo sapiens (Human), UniProt Q13822)
Assay: ATX inhibition assay (released choline, choline oxidase/HRP/Amplex Red fluorescence)
Format: biochemical
Procedure: LPC (oleoyl (18:1)) was purchased from Avant: Polar Lipids (Alabaster, Ala.) and solubilized in methanol to 20 mM. Amplex Red was obtained from Invitrogen Life Technologies (Paisley, UK) and dissolved in DMSO to 10 mM. Choline oxidase and horseradish peroxidase (HRP) were obtained from Sigma Aldrich (Dorset, UK) and dissolved in HBSS to 20 U/ml and 200 U/ml respectively. AH reagents were stored at −20° C. in single use aliquots. All experimental measurements were performed in assay buffer made up immediately prior to use (HBSS, 0.01% BSA essentially fatty acid free).
Recombinant human ATX was prepared at Novartis (Basel, CH) in a human embryonic kidney (HEK) cell preparation, and stored in single use aliquots of […] (26 μM) stocks stored at −80° C.
All experimental measurements were performed in black 384 well polystyrene (low volume, round bottom, Corning (3676)) plates. PerkinElmer EnVision (Fluorescence Intensity/Absorbance Monochromator) or Tecan Infinite 200 PRO series plate reader was used to detect change in fluorescent intensity.
ATX activity was determined by measurement of released choline in reactions containing ATX (10 nM), choline oxidase (0.1 U/ml), HRP (100 U/ml), amplex red (50 μM) and LPC 18:1 (10 μM). Compounds of the invention were prepared as 10 point serial dilutions from 1 μM in duplicate and pre-incubated with ATX at 37° C. for 20 minutes prior to the addition of remaining reagents. The liberated choline was measured from changes in fluorescence intensity (λex 530 nm, λem 590 nm) of the product resurofin at 37° C. every 2 minutes over a 40-minute period. ATX activity was measured as a slope of the linear portion of the progress curve, typically between 14 to 24 minutes.
Slope data was exported to Graphpad prism (Graphpad software, San Diego, Calif.) where data was fitted to equation 1. Y=Bottom+(Top−Bottom)/(1+10^((Log IC50−X)*HillSlope)) Equation 1: […]

Row | Compound | IC50 | IC50 (ATX 10 nM, LPC 18:1 10 μM, 37° C., 20 min pre-incubation, mean of n 2)
1 | (S)-3,5-Dichlorobenzyl 3-(4-(1H-1,2,3-triazol-4-yl)butanamido)pyrrolidine-1-carboxylate or (R)-3,5-Dichlorobenzyl 3-(4-(1H-1,2,3-triazol-4-yl)butanamido)pyrrolidine-1-carboxylate [Example 49b] | 263 nM | 
2 | (S)-3,5-Dichlorobenzyl 3-(4-(1H-1,2,3-triazol-4-yl)butanamido)pyrrolidine-1-carboxylate or (R)-3,5-Dichlorobenzyl 3-(4-(1H-1,2,3-triazol-4-yl)butanamido)pyrrolidine-1-carboxylate [Example 49a] | > 1000 nM | 
3 | CN(CCC1CCN(C(=O)OCc2cc(Cl)cc(C#N)c2)CC1)C(=O)c1c[nH]nn1 [Example 36, 3-Chloro-5-cyanobenzyl 4-(2-(N-methyl-1H-1,2,3-triazole-4-carboxamido)ethyl)piperidine-1-carboxylate] |  | 1000 nM

From patent US9409895B2, “Autotaxin inhibitors” (Novartis AG, priority 2012, dated 2016)
